Each structure is given as a SMILES string. Results filed as inconclusive are left out. Active and inactive are the calls of the source.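 Rule for the calls: active = Compounds that reduce signal, with fitted half-maximal dose at or under twice the top valid tested dose; inconclusive = Poor fit, or flat curve losing 30 to 70% of signal; inactive = Potency past limit, flat within 30%, or opposite direction.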

The first assay in a line: HEK293T cell cytotoxicity, dose response, cytotoxicity control, ATP luminescence, cherry-pick samples (AID 687005). The following applies: HEK293T viability, ATP luminescence (CellTiter-Glo), 48 h; at 23.5 µM (top of the series).
Regarding `O=C(C[C@H]1C[C@H]2c3cc(NC(=O)C4CCC4)ccc3O[C@H]2[C@@H](CO)O1)NCc1cccc(F)c1`, the activity change, negative = cytotoxicity was -5.36% (inactive).

`O=C(NC[C@@H]1[C@@H](c2ccccc2)[C@H](CO)N1C(=O)C1CCC1)NC1CCCC1`: the activity change, negative = cytotoxicity was -9.04% (inactive).

In the case of `C[C@@H]1CN([C@H](C)CO)C(=O)c2cc(NC(=O)Nc3cccc4ccccc34)ccc2O[C@H]1CN(C)C(=O)Nc1ccc(C(F)(F)F)cc1`, the activity change, negative = cytotoxicity is -31% (inactive).

In the case of `C/C=C/c1ccc([C@H]2[C@@H](CO)N(C(=O)CC)[C@@H]2CNC(=O)C2CC2)cc1`, the activity change, negative = cytotoxicity is 42.4% (inactive).

On to `CC(C)NC(=O)Nc1cccc2c1O[C@H](CN(C)C)[C@H](C)CN([C@H](C)CO)C2=O`, for which the activity change, negative = cytotoxicity was 7.48% (inactive).

On to `Cc1noc(C)c1NC(=O)N(C)C[C@@H]1Oc2ccc(NC(=O)NC(C)C)cc2CC(=O)N([C@@H](C)CO)C[C@@H]1C`, for which the activity change, negative = cytotoxicity was -4.18% (inactive).

Regarding `C[C@H]1CN([C@@H](C)CO)C(=O)Cc2cc(NC(=O)C3CC3)ccc2O[C@@H]1CN(C)C(=O)Nc1cccc2ccccc12`, the activity change, negative = cytotoxicity is -3.99% (inactive).

The assay is the same for the next values; noted with them: HEK293T viability, ATP luminescence (CellTiter-Glo), 48 h; at 26 µM (top of the series).
`C[C@@H]1CN([C@H](C)CO)C(=O)c2cc(NS(=O)(=O)c3cn(C)cn3)ccc2O[C@@H](C)CCCCO[C@H]1CN(C)C`: the activity change, negative = cytotoxicity is 21.8% (inactive).

On to `CC(C)NC(=O)N[C@H]1CC[C@@H](CCNC(=O)C2CC2)O[C@@H]1CO`, for which the activity change, negative = cytotoxicity was -21.3% (inactive).

With `CC1=C(C(=O)OCc2ccccc2)C(c2ccccc2)NC(=O)N1` (stereo not given), the activity change, negative = cytotoxicity was 13.2% (inactive).

Regarding `O=C(COC(=O)CCC1CCCC1)Nc1nc2c(F)c(F)c(F)cc2s1`, the activity change, negative = cytotoxicity is -8.53% (inactive).

`CCC(=O)Nc1ccc2c(c1)C(=O)N(C)C[C@H](OC)[C@@H](C)CN[C@H](C)CO2`: the activity change, negative = cytotoxicity was 29.1% (inactive).

For `O=C(c1cc(Br)ccc1Cl)N1CCN(c2ccccn2)CC1`, the activity change, negative = cytotoxicity is -6.43% (inactive).

As for `O=C(NCc1ccc(F)cc1)C1C2C=CC3(CN(Cc4cccnc4)C(=O)C13)O2` (stereo not given), the activity change, negative = cytotoxicity is 9.79% (inactive).

As to `C[C@@H]1CN([C@@H](C)CO)C(=O)c2cccc(NC(=O)Nc3ccccc3)c2O[C@H]1CN(C)S(=O)(=O)c1cn(C)cn1`, the activity change, negative = cytotoxicity was 55.5% (inactive).

In the case of `COc1ccccc1CNC(=O)C[C@@H]1CC[C@@H]2[C@H](COC[C@@H](O)CN2Cc2ccccc2)O1`, the activity change, negative = cytotoxicity is -10.7% (inactive).

In the case of `COc1ccc(OC(C)C(=O)NC(C)c2ccccc2)cc1` (stereo not given), the activity change, negative = cytotoxicity is -8.71% (inactive).

For the compound `COc1ccccc1C#Cc1ccc2c(c1)O[C@H](CN(C)C(C)=O)[C@H](C)CN([C@@H](C)CO)S2(=O)=O`, the activity change, negative = cytotoxicity is -7.15% (inactive).

In the case of `C[C@@H]1CN([C@@H](C)CO)C(=O)c2cccc(NS(=O)(=O)c3ccc(F)cc3)c2O[C@H]1CN(C)S(=O)(=O)c1ccc(Cl)cc1`, the activity change, negative = cytotoxicity was -22.8% (inactive).

As for `O=C(C[C@@H]1CC[C@@H](NC(=O)c2cccnc2)[C@@H](CO)O1)NCCN1CCCCC1`, the activity change, negative = cytotoxicity was -2.13% (inactive).

With `COc1cccc(S(=O)(=O)Nc2ccc3c(c2)[C@H]2C[C@H](CC(=O)NCc4ccccc4F)O[C@@H](CO)[C@H]2O3)c1`, the activity change, negative = cytotoxicity is 2.6% (inactive).

Consider `O=C(CCN1CCCCC1)NCC[C@@H]1CC[C@H](NC(=O)c2ccc(F)cc2)[C@@H](CO)O1`, for which the activity change, negative = cytotoxicity is 9.77% (inactive).

With `CO[C@H]1CC[C@@H]2CCOc3c(C#N)cccc3C(=O)N(C)C[C@@H](OC)[C@@H](C)C(=O)N(C)C[C@@H]1O2`, the activity change, negative = cytotoxicity was -16.3% (inactive).

Regarding `C[C@@H]1CN([C@@H](C)CO)C(=O)CCCn2nncc2CO[C@@H]1CN(C)Cc1cccc(C(F)(F)F)c1`, the activity change, negative = cytotoxicity is -9.87% (inactive).

As for `CNC(=O)C[C@H]1CC[C@H]2[C@H](COc3ccc(NC(=O)Nc4ccccc4)cc3C(=O)N2C)O1`, the activity change, negative = cytotoxicity was -20.5% (inactive).

For `C[C@@H]1CN([C@@H](C)CO)S(=O)(=O)c2ccc(C#Cc3ccc(F)cc3)cc2O[C@H]1CN(C)C(=O)NC1CCCC1`, the activity change, negative = cytotoxicity was 39.2% (inactive).

As to `O=C(CSc1ncnc2c1cnn2-c1ccccc1)NC1CCS(=O)(=O)C1` (stereo not given), the activity change, negative = cytotoxicity was 5% (inactive).

Take `C[C@@H]1CN([C@@H](C)CO)C(=O)c2cc(-c3ccc(C#N)cc3)cnc2O[C@@H]1CN(C)C(=O)Nc1ccc(F)cc1`: the activity change, negative = cytotoxicity is 5.67% (inactive).

For the compound `COc1ccc(NC(=O)N(C)C[C@H]2OCCCC[C@@H](C)Oc3ccc(NC(=O)c4ccccc4)cc3C(=O)N([C@H](C)CO)C[C@H]2C)cc1`, the activity change, negative = cytotoxicity is -27.5% (inactive).

Take `CNC[C@@H]1Oc2ccc(NS(=O)(=O)c3ccc(Cl)cc3)cc2C(=O)N([C@H](C)CO)C[C@H]1C`: the activity change, negative = cytotoxicity was 45.6% (inactive).

On to `CCN(Cc1ccccc1)C(=O)COc1ccccc1`, for which the activity change, negative = cytotoxicity is -2.56% (inactive).

For `CNC[C@H]1Oc2ccc(NC(=O)Cc3cn(C)c4ccccc34)cc2CC(=O)N([C@@H](C)CO)C[C@H]1C`, the activity change, negative = cytotoxicity was 27% (inactive).

`C[C@@H]1CCCCO[C@@H](CN(C)C(=O)CCCN(C)C)[C@@H](C)CN([C@H](C)CO)C(=O)c2cc(NC(=O)Cc3ccccc3)ccc2O1`: the activity change, negative = cytotoxicity is 13.4% (inactive).

With `CO[C@H](CN(C)Cc1cc(F)ccc1F)[C@@H](C)CN([C@@H](C)CO)S(=O)(=O)c1ccc(F)cc1`, the activity change, negative = cytotoxicity was 14.8% (inactive).

As to `Cc1ccccc1S(=O)(=O)N[C@@H]1CC[C@H](CCNS(=O)(=O)c2cccc(F)c2)O[C@H]1CO`, the activity change, negative = cytotoxicity was -17.7% (inactive).

With `Cc1ccc(S(=O)(=O)N2C[C@@H](O)COC[C@@H]3O[C@H](CC(=O)NCc4ccc5c(c4)OCO5)CC[C@H]32)cc1`, the activity change, negative = cytotoxicity is 46.9% (inactive).

As to `C[C@H](CO)N1C[C@H](C)[C@H](CN(C)C(=O)NC2CCCCC2)OCCCC[C@H](C)Oc2ccc(NC(=O)C3CCCCC3)cc2C1=O`, the activity change, negative = cytotoxicity is 15% (inactive).

For the compound `C/C=C/c1cnc2c(c1)C(=O)N([C@H](C)CO)C[C@@H](C)[C@@H](CN(C)C(=O)C1CCCCC1)O2`, the activity change, negative = cytotoxicity was 38.1% (inactive).

On to `CO[C@H](CN(C)Cc1ccc2c(c1)OCO2)[C@@H](C)CN(C(=O)c1ccccc1)[C@@H](C)CO`, for which the activity change, negative = cytotoxicity is -12.9% (inactive).

Consider `C[C@H](CO)N1C[C@H](C)[C@H](CN(C)C(=O)Nc2cccc(F)c2)Oc2ncc(C#CCN(C)C)cc2C1=O`, for which the activity change, negative = cytotoxicity is -20.2% (inactive).

Take `C[C@H]1CN([C@@H](C)CO)C(=O)c2cc(-c3ccccc3)cnc2O[C@@H]1CN(C)C(=O)c1ccccn1`: the activity change, negative = cytotoxicity was 19% (inactive).

For `O=C(NCC[C@H]1CC[C@H](NS(=O)(=O)c2ccc(F)cc2)[C@@H](CO)O1)c1ccc2c(c1)OCO2`, the activity change, negative = cytotoxicity is -2.6% (inactive).

On to `CCCC(=O)Nc1ccc2c(c1)OC[C@@H](C)N(Cc1cncnc1)C[C@@H](C)[C@@H](OC)CN(C)C2=O`, for which the activity change, negative = cytotoxicity is 49.4% (inactive).

As to `S=C(Nc1ccccc1)Nc1cc(Cl)ccc1Oc1ccccc1`, the activity change, negative = cytotoxicity is -0.976% (inactive).

Consider `C[C@@H]1CN([C@@H](C)CO)C(=O)c2cc(/C=C/c3ccccc3)cnc2O[C@@H]1CN(C)S(C)(=O)=O`, for which the activity change, negative = cytotoxicity was 10.2% (inactive).

For the compound `COc1ccc(NC(=O)Nc2ccc3c(c2)C(=O)N([C@H](C)CO)C[C@@H](C)[C@@H](CN(C)C(=O)CCC(F)(F)F)OCCCC[C@H](C)O3)cc1`, the activity change, negative = cytotoxicity is -34.4% (inactive).

As for `COC(=O)C1=C(C)N(Cc2ccc(F)cc2)C(=S)NC1c1cccc(OC)c1` (stereo not given), the activity change, negative = cytotoxicity was 4.8% (inactive).

With `Cc1ccc(CSc2ncnc3c2cnn3-c2ccc(C)cc2)cc1`, the activity change, negative = cytotoxicity was -28.8% (inactive).

In the case of `Cc1ccc(S(=O)(=O)N[C@H]2CC[C@H](CC(=O)NCc3ccccc3F)O[C@H]2CO)cc1`, the activity change, negative = cytotoxicity was 8.09% (inactive).

`COc1ccccc1NC(=O)N[C@H]1CC[C@@H](CCn2cc(-c3ccccc3OC)nn2)O[C@@H]1CO`: the activity change, negative = cytotoxicity was -9.57% (inactive).

Turning to `CC=Cc1ccc2n(c1=O)C[C@@H]1[C@@H](CO)[C@H](C(=O)N3CCCCC3)N(Cc3ccccc3)[C@H]21` (mixture of isomers), the activity change, negative = cytotoxicity is 11.7% (inactive).

For `CNC[C@@H]1Oc2c(NS(=O)(=O)c3cccs3)cccc2C(=O)N([C@@H](C)CO)C[C@H]1C`, the activity change, negative = cytotoxicity was 28.1% (inactive).

In the case of `COC(=O)C1=C(C)N(Cc2ccc(F)cc2)C(=S)NC1c1cccc(Cl)c1` (stereo not given), the activity change, negative = cytotoxicity was -1.12% (inactive).

Take `O=C(C[C@@H]1CC[C@H]2[C@@H](COC[C@H](O)CN2Cc2ccccc2F)O1)NC1CCC1`: the activity change, negative = cytotoxicity is -8.5% (inactive).

For `Cc1noc(C)c1S(=O)(=O)Nc1ccc2c(c1)CC(=O)N([C@@H](C)CO)C[C@H](C)[C@@H](CN(C)S(=O)(=O)c1cn(C)cn1)O2`, the activity change, negative = cytotoxicity is 50.4% (inactive).

With `O=C(C[C@@H]1C[C@@H]2c3cc(NC(=O)C4CCC4)ccc3O[C@@H]2[C@H](CO)O1)NCc1cccc(F)c1`, the activity change, negative = cytotoxicity is 3.17% (inactive).

On to `CCCNC(=O)N(C)C[C@@H]1Oc2ncc(C#CC3CCCCC3)cc2C(=O)N([C@H](C)CO)C[C@@H]1C`, for which the activity change, negative = cytotoxicity was -14% (inactive).

For the compound `COc1cc(NC(=O)CN2CCN(S(=O)(=O)c3ccc(C(C)C)cc3)CC2)cc(OC)c1`, the activity change, negative = cytotoxicity was 2.05% (inactive).

With `O=C(N[C@H]1CC[C@H](CCn2cc(-c3ccccn3)nn2)O[C@H]1CO)c1ccc(F)cc1`, the activity change, negative = cytotoxicity was -9.35% (inactive).

As for `CCC(=O)N[C@H]1C=C[C@H](CC(=O)NCC2CCCCC2)O[C@@H]1CO`, the activity change, negative = cytotoxicity is 35.4% (inactive).

The record behind these values is PubChem BioAssay AID687005 (Broad Institute, 2013).
